Patent US9314453B2, “Tetrahydropyridoethers for treatment of AMD” (KATAIRO GmbH, priority 2008, dated 2016)
Blank lines part the entries; values can stand above or below the compound they belong to.

Columns and labels:
[1] = system: RPE cells; test: 52-week oral study in the Cynomolgus monkey, conventional histopathology; format: in vivo
Protocol: Soraprazan was administrated in oral application of 6, 12 and 24 mg/kg/day for 52 weeks in the Cynomolgus monkey.
Some monkeys from the control and the high-dose group were subjected to a recovery period of 3 months.
Two of these 3 monkeys had depigmentation of RPE cells although the photoreceptors facing the depigmented RPE stayed healthy. These RPE cells had released melanin as well as lipofuscin granules to secondary cells that had migrated between Bruch's membrane and the RPE cell layer or into the subretinal space.

[2] = system: retinal pigment epithelium; test: Transmission electron microscopy of RPE and photoreceptors after 52 weeks oral treatment; format: in vivo, Cynomolgus monkey
Protocol: In the present example the effect of Soraprazan on pigmentation of the retinal pigment epithelium in the Cynomolgus monkey (4 years of age) after oral application of 24 mg/kg/day for 52 weeks is shown.
Right eyes from the following animals were subjected to transmission electron microscopy:
Right eyes were removed carefully. A circular slit was cut at the limbus in order to immerse the inner eye with the fixation fluid (5% Glutaraldehyd in […] Cacodylat buffer). From these eyes, specimens ([…] in diameter) from the macula and from the mid-area were cut out, were postfixed in OsO4, treated with uranylacetate, dehydrated and embedded in Epon resin.
Semithin sections (0.7 μm) were prepared from Epon resin blocks. They were stained with toluidin blue and evaluated under a light microscope. Subsequently, ultrathin sections (50 nm) were cut from Epon resin blocks, contrasted and evaluated in a transmission electron microscope.
The number of lipofuscin granules that were smaller than 0.4 μm in diameter was counted in the cytoplasm of ultrathin sections of RPE cells from untreated and treated monkeys. In addition the same counts were performed in macrophages located between RPE and Bruch's membrane of treated monkeys. The results were 4.9±0.6/50 μm^2, 0.6±0.2/50 μm^2; […]. Lipofuscin granules larger than 1 μm in diameter were absent in RPE cells of treated animals. In contrast many of them were present in RPE cells of untreated monkeys.

[3] = system: RPE cells; test: Fluorescence microscopy of lipofuscin granules in RPE sections of treated monkeys; format: in vivo, Cynomolgus monkey
Description: Section was illuminated under the fluorescence microscope with 360 nm wavelength light. Lipofuscin granules were detected by the emission of gold-yellow light with […] wavelength. […] Macrophages between the RPE and Bruch's membrane, however, contained many lipofuscin granules. The majority of these granules were smaller than those in RPE cells of untreated animals.

[4] = system: Retinal pigment epithelium (RPE) cells from human donor eyes; test: Lipofuscin content and pigmentation in cultured RPE cells from human donor eyes (digital image analysis); format: cell-based; details: for Lipofuscin and pigment content in cultured RPE cells: 50 μg/ml or 0.25 mM, permanent exposure, versus control; for Lipofuscin and melanin in cultured human RPE cells: after 26 days of treatment (FIG. 18)
Protocol: Retinal pigment epithelium (RPE) cells from human donor eyes were cultured and exposed permanently to either vehicle solution, solution of Soraprazan or solution of 7R,8R,9R)-2,3-Dimethyl-7-ethoxy-8-hydroxy-9-phenyl-7,8,9,10-tetrahydro-imidazo-[1,2-h][1,7]-naphthyridin (called substance 1) at a concentration of 50 μg/ml or 0.25 mM. At several time points, digital images were taken and analysed with respect to the portion of lipofuscin and pigmentation in general. As the results did strongly depend on the random choice of microscopic field and the variations of the data were very high, the values of four consecutive days of five independent experiments were averaged. The results for the lipofuscin content in the RPE cells are shown in the diagram (FIG. 18).
Retinal pigment epithelium (RPE) cells from human donor eyes were cultured and exposed permanently to either vehicle solution, solution of Soraprazan or solution of substance 1 (concentration 50 μg/ml or 0.25 mM). At several time points, digital images were taken and analysed with respect to the portion of lipofuscin and pigmentation in general.

[5] = system: photoreceptors and post-receptoral systems; test: Electroretinography (ERG) after intravitreal injection in Wistar rats; format: in vivo; details: for ERG a-wave and b-wave amplitudes after injection, compared with vehicle: intravitreal, 50 μg/ml or 0.25 mM in the vitreous, highest light intensity, initial decrease; for ERG a-wave and b-wave amplitudes, recovery: three weeks after the intravitreal injection
Protocol: (§1) The effects of lipofuscin in vivo, i.e. in the living eye of experimental rats after an intravitreal injection of the compounds were investigated. Vehicle solution or solutions of either substance 1 or Soraprazan were injected intravitreally in half-year old Wistar rats. The final concentration in the vitreous was the same as in the cell cultures, i.e. 50 μg/ml or 0.25 mM. In order to avoid mutual interactions between the two eyes of an animal, both eyes of an animal were treated the same way, with three animals (i.e. six eyes) per group.
(§2) Two kinds of evaluation were performed in these animals—electroretinography (ERG) for functional testing, and counting of lipofuscin particles to check whether the administration of the compounds leads to a decrease of lipofuscin contents in the RPE.
Before the injection, electroretinograms were measured to obtain base line values. Additional ERG measurements were performed one, two and three weeks after the intravitreal injections. Some results are shown in the diagrams below.

[6] = system: RPE; test: Counting of fluorescent lipofuscin particles in RPE after intravitreal injection in Wistar rats; format: in vivo; details: three weeks after one single intravitreal injection, 50 μg/ml or 0.25 mM in the vitreous
Protocol: as §1, §2
The eyes were isolated after three weeks, fixed in formalin and embedded in paraffin. Paraffin sections were made, and digital fluorescence images were evaluated. The number of fluorescent lipofuscin particles per 50 μm RPE layer length was counted. The results are shown in the diagram (FIG. 21).

[7] = system: Heavily pigmented human donor RPE cells; test: Electron microscopy / semithin sections of heavily pigmented human donor RPE cells, degradational clusters; format: cell-based; details: 28 days
Protocol: Heavily pigmented human donor RPE cells (passage)) were treated with 50 μg/ml substance 1 or 30 μg/ml Soraprazan and cultured for 28 days. Cells without treatment were used as controls. Cells were fixed for electron microscopy in 2% glutaraldehyde and embedded in EPON. Semithin and ultrathin sections were cut.
In the semithin sections, the clusters could be observed as well. Here, the pigmented cells bearing one or more clusters were counted. Degradational clusters were detected in 90.5%+/−21.3 of cells treated with substance 1 and in 80.1%+/−22.6 of cells treated with Soraprazan, but only in 16.8%+/−21.6 of untreated cells (p<0.0001).

[8] = system: RPE cell cultures from human donor eyes; test: Phagocytosis of fluorescent latex beads by RPE cell cultures; format: cell-based
Protocol: Then the treatment-dependent ability of the cells to phagocytose, which is a crucial function of the RPE, was checked. For this purpose, RPE cell cultures from human donor eyes were exposed to vehicle or substance 1. After three weeks, fluorescent latex beads were added to the cell cultures for four hours. The cells were then washed to remove non-phagocytosed beads and fixed. Fluorescent images of the cells were taken and analysed for the contents of lipofuscin and the number of phagocytosed beads. The results shown in FIG. 19 are presented as the relationship between lipofuscin content and phagocytosed bead number in both controls and substance-1-treated cells.

SMILES: CO[C@H]1c2ccn3c(C)c(C)nc3c2N[C@@H](c2ccccc2)[C@@H]1O [Example 1B, (7S,8S,9S)-2,3-Dimethyl-8-hydroxy-7-methoxy-9-phenyl-7,8,9,10-tetrahydro-imidazo[1,2-h][1,7]naphthyridine]
melting point: 161 to 162 °C

SMILES: CO[C@@H]1c2ccn3c(C)c(C)nc3c2N[C@@H](c2ccccc2)[C@@H]1O [Example 2B, (7R,8S,9S)-2,3-Dimethyl-8-hydroxy-7-methoxy-9-phenyl-7,8,9,10-tetrahydro-imidazo[1,2-h][1,7]naphthyridine]
melting point: 171 to 172 °C

SMILES: CO[C@@H]1[C@@H](c2ccccc2)Nc2c(ccn3c(C)c(C)nc23)[C@H]1OC [Example 8, (7R,8R,9R)-2,3-Dimethyl-7,8-dimethoxy-9-phenyl-7,8,9,10-tetrahydro-imidazo[1,2-h][1,7]naphthyridine]
melting point: 155 to 156 °C

SMILES: CO[C@H]1c2ccn3c(C)c(C)nc3c2N[C@H](c2ccccc2)[C@H]1O [Example 2A, (7S,8R,9R)-2,3-Dimethyl-8-hydroxy-7-methoxy-9-phenyl-7,8,9,10-tetrahydro-imidazo[1,2-h][1,7]naphthyridine]
melting point: 108 to 110 °C

SMILES: Cc1nc2c3c(ccn2c1C)[C@H](OC(C)C)[C@H](O)[C@@H](c1ccccc1)N3 [Example 7, (7S,8R,9R)-2,3-Dimethyl-8-hydroxy-9-phenyl-7-(2-propoxy)-7,8,9,10-tetrahydro-imidazo[1,2-h][1,7]naphthyridine]
melting point: 168 to 169 °C

SMILES: CCO[C@H]1c2ccn3c(C)c(C)nc3c2N[C@H](c2ccccc2)[C@H]1O [Example 4, (7S,8R,9R)-2,3-Dimethyl-7-ethoxy-8-hydroxy-9-phenyl-7,8,9,10-tetrahydro-imidazo[1,2-h][1,7]naphthyridine]
melting point: 135 to 137 °C

The next lines start with results.

Conventional histopathology ([1]; oral 6 mg/kg/day for 52 weeks): no alterations | Conventional histopathology ([1]; oral 12 mg/kg/day for 52 weeks): no alterations | Monkeys showing migration of individual macrophages beneath the RPE and/or into the subretinal space ([1]; oral 24 mg/kg/day for 52 weeks): Three out of 12 | Morphological changes in the neuroretina at the ultrastructural level ([2]; 24 mg/kg/day for 52 weeks): No morphological changes | Ultrastructural alterations in the retina compared to untreated monkeys ([2]; oral 24 mg/kg/day, 52 weeks): could not be detected
SMILES: COCCO[C@@H]1c2ccn3c(C)c(C)nc3c2N[C@H](c2ccccc2)[C@H]1O [Soraprazan, (7R,8R,9R)-2,3-Dimethyl-8-hydroxy-7-(2-methoxyethoxy)-9-phenyl-7,8,9,10-tetrahydro-imidazo[1,2-h][1,7]naphthyridine]
Monkeys with loss of melanin and lipofuscin in RPE cells ([2]; oral 24 mg/kg/day, 52 weeks): 3 out of 7 | Lipofuscin granules larger than 1 μm in diameter in RPE cells ([2]; treated animals): absent | Number of lipofuscin granules smaller than 0.4 μm in diameter in the cytoplasm of RPE cells ([2]; ultrathin sections, treated monkeys): 0.6±0.2 /50 μm^2 | Lipofuscin granules in depigmented RPE cells (fluorescence, 360 nm illumination) [3]: completely or almost completely absent | Lipofuscin and pigment content in cultured RPE cells [4]: decreased compared to the control | Lipofuscin and melanin in cultured human RPE cells [4]: reduced | ERG a-wave and b-wave amplitudes after injection, compared with vehicle [5]: decrease of the amplitudes is even more pronounced | ERG a-wave and b-wave amplitudes, recovery [5]: remained significantly lower than the base line | Number of fluorescent lipofuscin particles per 50 μm RPE layer length [6]: 15.0±8.3 particles per 50 μm | Pigmented cells bearing degradational clusters ([7]; 30 μg/ml): 80.1%+/−22.6

ERG a-wave and b-wave amplitudes, recovery [5]: recover almost completely
SMILES: CCO[C@@H]1c2ccn3c(C)c(C)nc3c2N[C@H](c2ccccc2)[C@H]1O [substance 1]
Lipofuscin and pigment content in cultured RPE cells [4]: even more clear and significant decrease | Lipofuscin and melanin in cultured human RPE cells [4]: reduced | Lipofuscin content of RPE cells ([8]; after three weeks exposure, versus control (FIG. 19)): much more lipofuscin under control conditions than under the influence of substance 1 | Number of phagocytosed latex beads ([8]; three weeks exposure, beads for four hours, versus untreated cells (FIG. 19)): phagocytosed more beads than untreated cells | ERG a-wave and b-wave amplitudes after injection, compared with vehicle [5]: decrease of the amplitudes is even more pronounced | Number of fluorescent lipofuscin particles per 50 μm RPE layer length [6]: 9.8±6.1 particles per 50 μm | Pigmented cells bearing degradational clusters ([7]; 50 μg/ml): 90.5%+/−21.3
